Measurements as given in patent US20200131132A1, “FARNESOID X RECEPTOR AGONISTS AND USES THEREOF” (Metacrine, Inc., priority 2017, published 2020).

Each molecule was assayed against T1, hFXR (Homo sapiens, UniProt Q96RI1) (assay: In Vitro FXR Assay (TK)). Details: CV-1 cells transfected with hFXR, hRXR, TK-ECRE-luc and pCMX-YFP; compounds incubated 18 hrs; luminescence.
T1 construct: expressed in transfected cells; host or cells: CV-1 cells
T1 sequence (Q96RI1 1-486): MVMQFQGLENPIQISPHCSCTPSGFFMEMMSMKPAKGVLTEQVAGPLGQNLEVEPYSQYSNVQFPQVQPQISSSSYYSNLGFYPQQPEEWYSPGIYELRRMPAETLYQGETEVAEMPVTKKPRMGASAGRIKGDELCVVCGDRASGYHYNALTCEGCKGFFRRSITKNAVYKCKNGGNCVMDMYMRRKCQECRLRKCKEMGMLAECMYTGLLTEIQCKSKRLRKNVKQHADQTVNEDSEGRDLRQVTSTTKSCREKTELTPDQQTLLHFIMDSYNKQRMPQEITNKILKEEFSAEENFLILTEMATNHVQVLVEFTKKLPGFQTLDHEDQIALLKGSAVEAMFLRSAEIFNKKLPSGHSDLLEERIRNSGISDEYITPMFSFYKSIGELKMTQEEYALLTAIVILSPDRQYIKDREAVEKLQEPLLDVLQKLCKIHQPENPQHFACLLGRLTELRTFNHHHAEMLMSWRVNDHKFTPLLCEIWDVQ
T1 sequence (P19793 1-462 partner): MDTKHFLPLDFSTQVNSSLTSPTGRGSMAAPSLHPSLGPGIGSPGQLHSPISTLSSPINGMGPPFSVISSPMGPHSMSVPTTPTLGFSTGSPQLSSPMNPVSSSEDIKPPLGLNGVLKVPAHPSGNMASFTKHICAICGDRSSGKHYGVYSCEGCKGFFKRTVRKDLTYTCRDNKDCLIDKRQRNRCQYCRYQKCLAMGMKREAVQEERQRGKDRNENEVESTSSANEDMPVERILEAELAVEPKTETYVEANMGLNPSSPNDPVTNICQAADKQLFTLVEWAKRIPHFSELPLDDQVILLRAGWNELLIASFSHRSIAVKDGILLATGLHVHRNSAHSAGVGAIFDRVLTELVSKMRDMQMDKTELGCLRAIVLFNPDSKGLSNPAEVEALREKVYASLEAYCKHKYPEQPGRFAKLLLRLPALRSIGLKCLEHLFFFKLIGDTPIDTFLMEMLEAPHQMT
Type: cell-based
Outline: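 CV-1, transient co-transfection: hFXR + hRXR + TK-ECRE-luc + pCMX-YFP; charcoal-stripped serum. 18 h post-transfection, DMSO serial dilutions of cpd added; 18 h incubation; lysis, luminescence.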
In the case of `COc1ccc(-c2ccc(CN(C(=O)CC(C)(C)C)c3nccc4cc(OC(C)CCO)ccc34)cc2)cc1C` (centres unmarked) [Compound 10.01, N-(6-((4-Hydroxybutan-2-yl)oxy)isoquinolin-1-yl)-N-((4′-methoxy-3′-methyl-[1,1′-biphenyl]-4-yl)methyl)-3,3-dimethylbutanamide], the EC50 is reported as ≤ 1000 nM.
For `COc1ccc(-c2ccc(CN(C(=O)CC(C)(C)C)c3cccc4ccncc34)cc2)cc1C` [Compound 5.02, N-(Isoquinolin-8-yl)-N-((4′-methoxy-3′-methyl-[1,1′-biphenyl]-4-yl)methyl)-3,3-dimethylbutanamide], the EC50 was > 10000 nM.
`CNC(=O)COc1ccc2c(N(Cc3ccc(-c4ccc(OC)c(C)c4)cc3)C(=O)CC(C)(C)C)nccc2c1` [Compound 8.01, N-((4′-Methoxy-3′-methyl-[1,1′-biphenyl]-4-yl)methyl)-3,3-dimethyl-N-(6-(2-(methylamino)-2-oxoethoxy)isoquinolin-1-yl)butanamide] showed an EC50 of 1000 to 10000 nM.
In the case of `COc1ccc(-c2ccc(CN(C(=O)CC(C)(C)C)c3nccc4cc(N5CCCC(O)C5)ccc34)cc2)cc1C` (centres unmarked) [Compound 6.17, N-(6-(3-Hydroxypiperidin-1-yl)isoquinolin-1-yl)-N-((4′-methoxy-3′-methyl-[1,1′-biphenyl]-4-yl)methyl)-3,3-dimethylbutanamide], the EC50 is reported as ≤ 1000 nM.
`COc1ccc(-c2ccc(CN(C(=O)CC(C)(C)C)c3nccc4cc(OC5CNC5)ccc34)cc2)cc1C` [Compound 28.01, N-(6-(Azetidin-3-yloxy)isoquinolin-1-yl)-N-((4′-methoxy-3′-methyl-[1,1′-biphenyl]-4-yl)methyl)-3,3-dimethylbutanamide] showed an EC50 of 1000 to 10000 nM.
`COc1ccc(-c2ccc(CN(C(=O)CC(C)(C)C)c3nccc4cc(N5CCC(F)C5)ccc34)cc2)cc1C` (centres unmarked) [Compound 6.12, N-(6-(3-Fluoropyrrolidin-1-yl)isoquinolin-1-yl)-N-((4′-methoxy-3′-methyl-[1,1′-biphenyl]-4-yl)methyl)-3,3-dimethylbutanamide] was tested, and the EC50 was ≤ 1000 nM.
For `COc1ccc(-c2ccc(CN(C(=O)CC(C)(C)C)c3nccc4cc(CCO)ccc34)cc2)cc1C` [Compound 25, N-(6-(2-Hydroxyethyl)isoquinolin-1-yl)-N-((4′-methoxy-3′-methyl-[1,1′-biphenyl]-4-yl)methyl)-3,3-dimethylbutanamide], the EC50 was ≤ 1000 nM.
With `COc1ccc(-c2ccc(CN(C(=O)CC(C)(C)C)c3nccc4sccc34)cc2)cc1C` [Compound 4.05, N-((4′-Methoxy-3′-methyl-[1,1′-biphenyl]-4-yl)methyl)-3,3-dimethyl-N-(thieno[3,2-c]pyridine-4-yl)butanamide] the EC50 was ≤ 1000 nM.
`COc1ccc(-c2ccc(CN(C(=O)CC(C)(C)C)c3nccc4cc(OCCCN(C)C)ccc34)cc2)cc1C` [Compound 8.12, N-(6-(3-(Dimethylamino)propoxy)iso-quinolin-1-yl)-N-((4′-methoxy-3′-methyl-[1,1′-biphenyl]-4-yl)methyl)-3,3-dimethylbutanamide] gave an EC50 of 1000 to 10000 nM.
`COc1ccc(-c2ccc(CN(C(=O)CC(C)(C)C)c3cccc4cnccc34)cc2)cc1C` [Compound 5.01, N-(Isoquinolin-5-yl)-N-((4′-methoxy-3′-methyl-[1,1′-biphenyl]-4-yl)methyl)-3,3-dimethylbutanamide] was tested, and the EC50 was > 10000 nM.
`COc1ccc(-c2ccc(CN(C(=O)CC(C)(C)C)c3nccc4cc(N5CCC(CCO)C5)ccc34)cc2)cc1C` (centres unmarked) [Compound 6.14, N-(6-(3-(2-Hydroxyethyl)pyrrolidin-1-yl)isoquinolin-1-yl)-N-((4′-methoxy-3′-methyl-[1,1′-biphenyl]-4-yl)methyl)-3,3-dimethylbutanamide] was tested, and the EC50 was ≤ 1000 nM.
In the case of `COc1ccc(-c2ccc(CN(C(=O)CC(C)(C)C)c3nccc4cc(OC5CCC(O)C5)ccc34)cc2)cc1C` (centres unmarked) [Compound 10.02, N-(6-((3-Hydroxycyclopentyl)oxy)iso-quinolin-1-yl)-N-((4′-methoxy-3′-methyl-[1,1′-biphenyl]-4-yl)methyl)-3,3-dimethylbutanamide], the EC50 is reported as ≤ 1000 nM.
`COc1cccc(-c2ccc3c(N(Cc4ccc(-c5ccc(OC)c(C)c5)cc4)C(=O)CC(C)(C)C)nccc3c2)n1` [Compound 15.01, N-((4′-Methoxy-3′-methyl-[1,1′-biphenyl]-4-yl)methyl)-N-(6-(6-methoxypyridin-2-yl)isoquinolin-1-yl)-3,3-dimethylbutanamide] showed an EC50 of 1000 to 10000 nM.
`COc1ccc([C@H]2CC[C@H](CN(C(=O)CC(C)(C)C)c3nccc4cc(C)ccc34)CC2)cc1C` [Compound 3, N-((trans-4-(4-Methoxy-3-methylphenyl)cyclohexyl)methyl)-3,3-dimethyl-N-(6-methylisoquinolin-1-yl)butanamide] was tested, and the EC50 was ≤ 1000 nM.
Molecule `COc1ccc(-c2ccc(CN(C(=O)CC(C)(C)C)c3nccc4c(OC)cccc34)cc2)cc1C` [Compound 11.04, N-((4′-Methoxy-3′-methyl-[1,1′-biphenyl]-4-yl)methyl)-N-(5-methoxyisoquinolin-1-yl)-3,3-dimethylbutanamide] has an EC50 of 1000 to 10000 nM.
For `COc1ccc(-c2ccc(CN(C(=O)CC(C)(C)C)c3nccc4cc(OCCCO)cnc34)cc2)cc1C` [Compound 8.13, N-(3-(3-Hydroxypropoxy)-1,7-naphthyridin-8-yl)-N-((4′-methoxy-3′-methyl-[1,1′-biphenyl]-4-yl)methyl)-3,3-dimethylbutanamide], the EC50 was ≤ 1000 nM.
In the case of `COc1ccc(-c2ccc(CN(C(=O)CC(C)(C)C)c3nccc4cc(-c5ccccn5)ccc34)cc2)cc1C` [Compound 16, N-((4′-Methoxy-3′-methyl-[1,1′-biphenyl]-4-yl)methyl)-3,3-dimethyl-N-(6-(pyridin-2-yl)isoquinolin-1-yl)butanamide], the EC50 is reported as ≤ 1000 nM.
For `COc1ccc(-c2ccc(CN(C(=O)CC(C)(C)C)c3nccc4cc(OCC(C)CO)ccc34)cc2)cc1C` (centres unmarked) [Compound 10, N-(6-(3-Hydroxy-2-methylpropoxy)isoquinolin-1-yl)-N-((4′-methoxy-3′-methyl-[1,1′-biphenyl]-4-yl)methyl)-3,3-dimethylbutanamide], the EC50 was ≤ 1000 nM.
In the case of `COc1ccc(-c2ccc(CN(C(=O)CC(C)(C)C)c3nccc4cc(N5CCOCC5)ccc34)cc2)cc1C` [Compound 6.06, N-((4′-Methoxy-3′-methyl-[1,1′-biphenyl]-4-yl)methyl)-3,3-dimethyl-N-(6-morpholinoisoquinolin-1-yl)butanamide], the EC50 is reported as ≤ 1000 nM.
`COc1ccc2c(N(Cc3ccc(-c4ccc(OC)c(C)c4)c(CO)c3)C(=O)CC(C)(C)C)nccc2c1` [Compound 21.01, N-((2-(Hydroxymethyl)-4′-methoxy-3′-methyl-[1,1′-biphenyl]-4-yl)methyl)-N-(6-methoxyisoquinolin-1-yl)-3,3-dimethylbutanamide] was tested, and the EC50 was 1000 to 10000 nM.
For `COc1ccc([C@H]2CC[C@H](CN(C(=O)CC(C)(C)C)c3nccc4cc(CO)ccc34)CC2)cc1C` [Compound 2, N-(6-(Hydroxymethyl)isoquinolin-1-yl)-N-((trans-4-(4-methoxy-3-methylphenyl)cyclohexyl)methyl)-3,3-dimethylbutanamide], the EC50 was ≤ 1000 nM.
For `COc1ccc(-c2ccc(CN(C(=O)CC(C)(C)C)c3nccc4cc(OCCC(C)O)ccc34)cc2)cc1C` (centres unmarked) [Compound 10.03, N-(6-(3-Hydroxybutoxy)isoquinolin-1-yl)-N-((4′-methoxy-3′-methyl-[1,1′-biphenyl]-4-yl)methyl)-3,3-dimethylbutanamide], the EC50 was ≤ 1000 nM.
`COc1ccc(-c2ccc(CN(C(=O)CC(C)(C)C)c3nccc4cc(N5CCC(C#N)C5)ccc34)cc2)cc1C` (centres unmarked) [Compound 6.13, N-(6-(3-Cyanopyrrolidin-1-yl)isoquinolin-1-yl)-N-((4′-methoxy-3′-methyl-[1,1′-biphenyl]-4-yl)methyl)-3,3-dimethylbutanamide] was tested, and the EC50 was ≤ 1000 nM.
Molecule `COc1ccc(-c2ccc(CN(C(=O)CC(C)(C)C)c3nccc4cc(COCC(=O)O)ccc34)cc2)cc1C` [Compound 29.01, 2-((1-(N-((4′-Methoxy-3′-methyl-[1,1′-biphenyl]-4-yl)methyl)-3,3-dimethylbutanamido)isoquinolin-6-yl)methoxy)acetic acid] has an EC50 of 1000 to 10000 nM.
With `COc1ccc(-c2ccc(CN(C(=O)CC(C)(C)C)c3nccc4cc(N5CCC(CO)C5)ccc34)cc2)cc1C` (centres unmarked) [Compound 6.16, N-(6-(3-(Hydroxymethyl)pyrrolidin-1-yl)isoquinolin-1-yl)-N-((4′-methoxy-3′-methyl-[1,1′-biphenyl]-4-yl)methyl)-3,3-dimethylbutanamide] the EC50 was ≤ 1000 nM.
For `COc1ccc(-c2ccc(CN(C(=O)CC(C)(C)C)c3nccc4cc(OCCN(C)C)ccc34)cc2)cc1C` [Compound 8.04, N-(6-(2-(Dimethylamino)ethoxy)isoquinolin-1-yl)-N-((4′-methoxy-3′-methyl-[1,1′-biphenyl]-4-yl)methyl)-3,3-dimethylbutanamide], the EC50 was 1000 to 10000 nM.
